Data: US6649626B1, “N-substituted 1-(lactone) isoquinolones for treating nervous disorders” (Centre National de la Recherche Scientifique (CNRS), priority 1999, dated 2003)

Legend:
[1] = target: T1, α1β2γ2 subtype of the GABA receptor (Rattus norvegicus, UniProt P18508+P62813+P63138); experiment: Electrophysiology: modulation of GABA currents in Xenopus oocytes expressing recombinant GABA-A receptors; assay type: cell-based; details: for % stimulation of the GABA currents / % stimulation of the GABA currents (100 μM): α1β2γ2 in oocytes; for % stimulation of the GABA currents (100 μM): 100 μM compound with GABA
T1 construct: expressed in transfected cells; host or cells: Xenopus laevis oocytes (cRNA injection)
T1 sequence (P62813 28-455): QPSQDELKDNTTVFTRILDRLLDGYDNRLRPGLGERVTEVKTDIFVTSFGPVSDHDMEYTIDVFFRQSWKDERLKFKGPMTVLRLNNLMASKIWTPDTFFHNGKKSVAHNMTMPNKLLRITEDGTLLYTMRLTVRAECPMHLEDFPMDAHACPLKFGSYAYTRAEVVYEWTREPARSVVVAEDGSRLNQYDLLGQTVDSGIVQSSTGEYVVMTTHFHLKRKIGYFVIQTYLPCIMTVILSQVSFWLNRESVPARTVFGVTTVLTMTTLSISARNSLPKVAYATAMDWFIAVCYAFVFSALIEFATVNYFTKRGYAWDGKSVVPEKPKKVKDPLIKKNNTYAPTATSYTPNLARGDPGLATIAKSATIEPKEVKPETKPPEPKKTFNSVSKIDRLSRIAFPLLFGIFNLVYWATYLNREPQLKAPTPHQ
T1 sequence (P63138 25-474 limits assumed): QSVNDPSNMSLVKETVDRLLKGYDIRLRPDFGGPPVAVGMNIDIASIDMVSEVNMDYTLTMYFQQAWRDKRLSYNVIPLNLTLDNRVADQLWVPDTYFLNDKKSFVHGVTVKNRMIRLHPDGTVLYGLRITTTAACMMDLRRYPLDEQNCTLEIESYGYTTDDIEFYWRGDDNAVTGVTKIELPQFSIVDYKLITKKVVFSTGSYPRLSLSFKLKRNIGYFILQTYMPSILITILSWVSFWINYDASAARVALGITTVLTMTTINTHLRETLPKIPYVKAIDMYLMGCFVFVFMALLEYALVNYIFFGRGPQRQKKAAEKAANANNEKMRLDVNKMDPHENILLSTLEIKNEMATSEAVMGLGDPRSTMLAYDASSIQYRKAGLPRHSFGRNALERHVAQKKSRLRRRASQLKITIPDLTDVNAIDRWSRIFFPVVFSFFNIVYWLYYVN
T1 sequence (P18508 39-466): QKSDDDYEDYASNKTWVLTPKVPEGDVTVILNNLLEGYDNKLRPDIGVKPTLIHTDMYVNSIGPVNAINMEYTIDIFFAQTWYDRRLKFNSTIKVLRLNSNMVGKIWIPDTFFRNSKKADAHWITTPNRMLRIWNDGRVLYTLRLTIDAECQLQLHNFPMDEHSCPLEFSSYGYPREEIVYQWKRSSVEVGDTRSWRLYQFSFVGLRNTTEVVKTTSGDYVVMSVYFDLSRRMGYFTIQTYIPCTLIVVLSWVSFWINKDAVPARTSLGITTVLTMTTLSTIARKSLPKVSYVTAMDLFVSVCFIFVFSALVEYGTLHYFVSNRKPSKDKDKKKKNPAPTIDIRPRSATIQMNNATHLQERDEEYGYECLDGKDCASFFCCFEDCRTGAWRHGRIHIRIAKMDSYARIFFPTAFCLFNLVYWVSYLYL

[2] = target: T2, benzodiazepine-binding site of the GABA-A receptor (Rattus norvegicus, UniProt P18508+P62813); experiment: Displacement of tritiated flunitrazepam from brain membranes; details: tissue not stated
T2 construct: IC50 Flu / BZ receptor; other: cerebellum (ce); other: cerebellum (ce; BZ1 subtype); other: 10 μM; cerebellum; other: 100 μM; other: 0.5 μM
T2 sequence (P62813 28-455): as the sequence (P62813 28-455) above
T2 sequence (P18508 39-466): as the sequence (P18508 39-466) above
T2 sequence (P63138 26-474 partner): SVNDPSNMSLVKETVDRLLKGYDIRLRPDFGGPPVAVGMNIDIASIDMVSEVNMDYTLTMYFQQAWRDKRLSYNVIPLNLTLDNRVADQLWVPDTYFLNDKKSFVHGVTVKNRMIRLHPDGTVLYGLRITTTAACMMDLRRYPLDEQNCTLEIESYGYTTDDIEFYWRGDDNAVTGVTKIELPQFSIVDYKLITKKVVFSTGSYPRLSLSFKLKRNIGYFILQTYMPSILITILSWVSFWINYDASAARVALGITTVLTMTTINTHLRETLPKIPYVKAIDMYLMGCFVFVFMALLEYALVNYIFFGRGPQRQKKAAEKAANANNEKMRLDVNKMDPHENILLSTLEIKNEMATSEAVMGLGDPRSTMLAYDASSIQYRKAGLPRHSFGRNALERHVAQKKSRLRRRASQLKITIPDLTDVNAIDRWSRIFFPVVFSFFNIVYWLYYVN

[3] = system: GABA-binding site of the GABA-A receptor; experiment: Displacement of tritiated muscimol from brain membranes; details: for Muscimol: stimulation: stimulation instead of displacement
[4] = system: benzodiazepine-binding site of the GABA-A receptor; experiment: Displacement of tritiated flunitrazepam from brain membranes
[5] = system: picrotoxin-binding site of the GABA-A receptor; experiment: Displacement of 35S-TBPS from brain membranes; set-up: species or system rats

SMILES	% stimulation of the GABA currents ([1]; 0.1 μM compound)	% stimulation of the GABA currents (100 μM) [1]	Inhibition of the tritiated ligands % Flu (100 μM) ([2]; 100 μM)	Displacement of muscimol ([3]; 100 μM)	further results
COc1cc2c(cc1OC)C(C1C=C(C)C(=O)O1)N(C(=O)OCc1ccccc1)CC2 (racemic) [Compound 47]	0%	60 ± 26%	10%	100 μM = 0%	–
O=C1C=CC(C2c3ccccc3CCN2C(=O)Oc2ccccc2)O1 (racemic) [Compound 58]	0%	+159 ± 8%	70%	100 μM = 0%	Inhibition of the tritiated ligands % Flu ([4]; 0.5 μM, tissue not stated): 0%; Inhibition of the tritiated ligands % Flu ([4]; 10 μM, tissue not stated): 45%; Inhibition of the tritiated ligands % TBPS ([5]; 10 μM): 0%
COc1cc2c(cc1OC)[C@H]([C@@H]1C=C(C)C(=O)O1)N(C)CC2 (racemic) [Compound 30b]	–	−10%	negligible	–	–
COc1cc2c(cc1OC)C(C1C=C(C)C(=O)O1)N(C(=O)OCc1ccccc1)CC2 (racemic) [Compound 46]	0%	24 ± 5%	0%	100 μM = 0%	–
COc1cc2c(cc1OC)C(C1C=CC(=O)O1)NCC2 (racemic) [Compound 42]	0%	−45 ± 6%	–	20%	inhibition at 10 µM ([2]; 10 μM, read-out: Inhibition of the tritiated ligands % Flu): 0%; inhibition at 100 µM ([2]; 100 μM, read-out: Inhibition of the tritiated ligands % Flu (100 μM)): 30%; Displacement of muscimol ([3]; 10 μM): 0%
O=C1C=CC(C2c3ccccc3CCN2C(=O)Cc2ccccc2)O1 (racemic) [Compound 55]	0%	+33 ± 4%	95%	100 μM = 0%	Inhibition of the tritiated ligands % Flu ([4]; 0.5 μM, cerebellum): 30%; Inhibition of the tritiated ligands % Flu ([4]; 0.5 μM, cortex): 20%; Inhibition of the tritiated ligands % Flu ([4]; 10 μM, cerebellum): 80%; Inhibition of the tritiated ligands % Flu ([4]; 10 μM, cortex): 70%
O=C1C=CC(C2c3ccccc3CCN2C(=O)OCc2ccccc2)O1 (racemic) [Compound 50]	+26 ± 6%	+281 ± 35%	100%	100 μM = 0%	blockade of the stimulation by flumazenil (in words) ([1]; printed after the 0.1 μM value): completely blocked by flumazenil; Inhibition of the tritiated ligands % Flu ([2]; 0.5 μM): 55%; Inhibition of the tritiated ligands % Flu ([2]; 10 μM): 90%; Inhibition of the tritiated ligands % TBPS ([5]; 0.5 μM): 5%; Inhibition of the tritiated ligands % TBPS ([5]; 10 μM): 30%
O=C1C=CC(C2c3cc4c(cc3CCN2C(=O)OCc2ccccc2)OCO4)O1 (racemic) [Compound 44]	0%	–	45%	–	% stimulation of the GABA currents ([1]; 50 μM compound): +215 ± 16%; Inhibition of the tritiated ligands % Flu ([2]; 0.5 μM): < 5%; Inhibition of the tritiated ligands % Flu ([2]; 10 μM): 20%; Inhibition of the tritiated ligands % TBPS ([5]; 0.5 μM): 0%; Inhibition of the tritiated ligands % TBPS ([5]; 10 μM): 25%; Displacement of muscimol ([3]; 0.5 μM): 10%; Displacement of muscimol ([3]; 10 μM): 0%; Muscimol: stimulation ([3]; 100 μM): 10%
Cc1ccc(S(=O)(=O)N2CCc3ccccc3C2C2CCC(=O)O2)cc1 (single isomer, unassigned) [Compound 69]	–	+859 ± 75%	–	–	portion of the stimulatory activity due to a binding site distinct from those for the benzodiazepines [1]: < 70%; % stimulation of the GABA currents (100 μM) ([1]; listed as (−) 69): +859%; % of the stimulation inhibited by flumazenil ([1]; stimulation by 20 μM compound, 1 μM flumazenil): 28%
Cc1ccc(S(=O)(=O)N2CCc3ccccc3C2C2CCC(=O)O2)cc1 (single isomer, unassigned) [Compound 68]	–	+184 ± 43%	–	–	% stimulation of the GABA currents (100 μM) ([1]; listed as (−) 68): +184%
Cc1ccc(S(=O)(=O)N2C=Cc3ccccc3C2[C@H]2CCC(=O)O2)cc1 (mixture of isomers) [Compound 76, (±)-(1R,2′R)-2-N-Tosyl-1-(2,3,4,5-tetrahydro-5-oxo-2-furyl)-1,2-dihydroisoquinoline]	–	+481 ± 116%	0%	–	% stimulation of the GABA currents ([1]; 10 μM compound): 97 ± 2%; Muscimol: stimulation ([3]; 100 μM): 20% stimulation at 100 μM
